Values after ≈ are worked out from the molar mass of the structure shown.

This series in a line: Toxicity in brine shrimp. The series is classed as organism-based. The conditions noted are these: artemia, in vivo.

For orientation: LC50 means the concentration that kills 50% of the test population. In turn, `CN1CCC[C@H]1CCCCCCCCCc1ccccc1` displayed an LC50 of 1 µg/mL (≈ 3.48 µM).

(Values after ChEMBL document CHEMBL1150211, “Structure of Irniine, a Pyrrolidine Alkaloid from Arisarum vulgare” (J Nat Prod, 1992).)
